# Assays:
# [1] = test system: Ang II-induced cardiac inflammation and fibrosis; experiment: Immunohistochemistry of inflammatory and fibrotic markers (F4/80, TNC) in left ventricle, Ang II preventive model; format: in vivo, mouse; settings: 20 mg/kg oral, compared with Ang II untreated mice
# Procedure: Macrophages accumulation are the hallmark of Ang II-induced fibrosis and play important roles during the inflammatory phase. Macrophage accumulation was identified by staining with a mAb that identifies F4/80^+ cells (FIG. 3). TNC is an ECM molecule that is expressed in response to injury in various tissues. Although not detectable in the normal adult heart, it was expressed under pathological conditions (FIG. 4).
# Heart sections (Left ventricle) ([…]) were deparaffinized and boiled for 10 minutes in sodium citrate buffer (10 mM, pH 6.0) (Sigma-Aldrich, Madrid, Spain) for antigen retrieval. The sections were then incubated in a PBS washing buffer containing 0.1% Tween (Sigma-Aldrich, Madrid, Spain) three times for 10 minutes. The sections were incubated overnight at 4° C. with the following antibodies; for immunohistochemical detection of macrophages F4/80 antibody (1:50; MCA497, Bio-Rad) or with monoclonal anti-TNC (1:100 dilution, #MAB2138, RD system, Mineapolis, Minn., USA) were used for detection of this ECM protein. Slides were developed with diaminobenzidine chromogen (Agilent, Santa Clara, Calif., USA) and counterstained in Harris hematoxylin (Sigma-Aldrich, Madrid, Spain). Slides were photographed, digitalized using a Leica DFC420c camera and analyzed using Image J software.
# [2] = test system: NFAT; experiment: Gal4-NFAT / Gal4-Luc reporter assay in hICF; format: cell-based, human; settings: hICF transfected with Gal4-Luc and Gal4-NFAT, stimulated 6 hours
# Procedure: hICF cells were transiently transfected for 24 hours with the Gal4-Luc reporter plasmid (which includes five Gal4 DNA binding sites fused to the luciferase gene) and the Gal4-NFAT1-415plasmid for 24 hours using Roti-Fect (Carl Roth GmbH & Co. KG, Karlsruhe, Germany). Then cells were stimulated for 6 hours and luciferase activity in the cell lysates was measured. The specific transactivation expressed as a percentage of activation relative to control. Compound of Formula (VIII) inhibited Ang II-induced NFAT activation (FIG. 16B).
# [3] = test system: Ang II-induced dermal fibrosis; experiment: Ang II-induced dermal fibrosis, preventive model, Sirius Red; format: in vivo, mouse; settings: Ang II 1.0 mg kg^- min^- two weeks, 20 mg/kg oral gavage
# Procedure: The local renin angiotensin system exists in almost all organs, including skin. Ang II induces fibrosis in the skin via accumulation of activated fibroblasts. Dermal fibrosis was induced in mice by infusion of Ang II (1.0 mg kg^− min^−) for two weeks. The treatment with the compound of Formula (VIII) by oral gavage was the same as describe in Example 2. After two weeks of treatment, the mice were sacrificed under ether anesthesia. Skin samples were collected and fixed in 4% paraformaldehyde and embedded in paraffin. Skin sections (5 μm) were stained with Sirius Red for evaluation of fibrosis. Subcutaneous Ang II infusion induced a significant increase of collagen content and in the mice treated with compound, the induction of fibrosis in the skin is prevented (FIG. 11).
# [4] = test system: Ang II-induced renal fibrosis; experiment: Ang II therapeutic model: renal fibrosis, Sirius red; format: in vivo, mouse; settings: Ang II four weeks, 20 mg/kg oral last two weeks, #p<0.05 versus Ang II group
# Procedure: (§1) For the therapeutic model, infusion of Ang II for four weeks and the compound of Formula (VIII) (20 mg/kg) was administrated after two weeks of pump implantation. Subcutaneous infusion of Ang II using ALZET osmotic minipumps was used to study the preventive effects of the compound ALZET® osmotic minipumps (Model #2004, Charles Rives, Barcelona, Spain) delivering of Ang II (500 ng kg^−1 min^−1) (Sigma-Aldrich, Madrid, Spain) for four weeks. Compound treatment was daily administered in parallel, two weeks after the implantation of the subcutaneous pump, beneath the midscapular loose skin and consisted of daily oral gavage of compound of Formula (VIII) (20 mg/kg) or vehicle (Corn Oil/Maisine CC, 1/1). Mice were acclimated to manipulators for a week previously to the experiments in order to reduce stress and allow the detection of subtle changes in behavior by researchers. […] Neither piloerection nor hunched appearances were appreciated during the experimental procedures. Mice were sacrificed by cervical dislocation and the heart, aorta, kidney, and lung were removed and processed for histological examination or were frozen for further analysis.
# [5] = test system: E2F pathway; experiment: Real-time quantitative PCR of E2F pathway markers in cardiac tissue, Ang II preventive model; format: in vivo, mouse; settings: Ang II mice; #p<0.05 versus Ang II group
# [6] = Weight and behaviour observation during the therapeutic Ang II protocol; format: in vivo, mouse; settings: 20 mg/kg daily oral gavage
# Procedure: as §1
# [7] = test system: human immortalized cardiac fibroblasts (hICF); experiment: Fibroblast differentiation into myofibroblasts: α-SMA expression in hICF; format: cell-based; settings: hICF treated with TGF-β or Ang II; pretreatment with compound
# Description: The profibrotic activity of Ang II on cardiac fibroblasts in vitro and in vivo has been extensively documented (H. H. Sigusch et al., 1996, Cardiovasc Res, 31:546-554). To study myofibroblast differentiation in vitro, immortalized cardiac fibroblasts (hICF) were stained with for α-SMA expression, a specific marker for myofibroblasts differentiation. Immortalized primary human cardiac fibroblasts (hICF) with SV40 Large T antigen were obtained from Innoprot SL (Derio, Spain) and cultured in low passages (<5 passages). The cells were maintained in a humidified atmosphere at 37° C. containing 5% CO2, 10% fetal bovine serum (FBS) and 1% (v/v) penicillin/streptomycin in Fibroblast Medium-2 (P60108-2, Innoprot, Derio, Spain). Ang II was purchased from Sigma-Aldrich Co (A9525, Sigma, Madrid, Spain) and TGFb1 (Transforming Growth Factor-b)-1 (10 ng/mL) was obtained from ImmunoTools GmbH (Friesoythe, Germany). Both TGF-β and Ang II induced α-SMA protein expression in cultured hICF and pretreatment with compound of Formula (VIII) decreased α-SMA expression. The differentiation to myofibroblast was associated with morphological changes of cellular hypertrophy.
smiles,measurement,setting,value
C=C(C)C1CCC(C)=C[C@H]1C1=C(O)C(=O)C(CCCCC)=C(NCc2ccccc2)C1=O (some centres unmarked) [Formula (VIII)],TNC marker in left ventricle (immunostaining),[1],significantly reduced
same,infiltration of F4/80+ macrophages in myocardial tissue,[1],significantly reduced
same,Ang II-induced NFAT activation (luciferase),[2],inhibited
same,induction of fibrosis in the skin (collagen content),[3],prevented
same,renal fibrosis (collagen accumulation in kidney),[4],reduced
same,CDK1 gene expression in cardiac tissue,[5],down regulated
same,MKi67 gene expression in cardiac tissue,[5],down regulated
same,TOP2A gene expression in cardiac tissue,[5],down regulated
same,behavioral changes,[6],No behavioral changes
same,mice weight,[6]; between experimental groups,no significant changes
same,α-SMA expression,[7],decreased

# From patent publication US20230137092A1, “Composition and Method for the Treatment and Prevention of Cardiac, Pulmonary, Dermal, and Renal Fibrosis” (EMERALD HEALTH PHARMACEUTICALS INC., priority 2020, published 2023)
